# Reference: patent US20110152298A1, “IMIDAZO [2,1-B] QUINAZOLIN-2-ONE DERIVATIVES AND THEIR USE AS PLATELET ANTI-AGGREGATIVE AGENTS” (SHIRE LLC, priority 2008, published 2011)
# Key:
# [1] = tested on: human phosphodiesterase III (PDE III); test: PDE III inhibition; assay type: biochemical
# Source text: In early volunteer trials, the most frequently reported adverse effects AEs other than headache were palpitations, postural dizziness and nausea. During patient studies, the most frequently reported drug-related AEs were headache, palpitations, oedema/fluid retention, nausea/vomiting, diarrhea, dizziness and abdominal pain. These effects are all likely to arise from the secondary, cardiovascular pharmacology associated with anagrelide resulting from its inhibitory effects on human phosphodiesterase III (PDE III). […] Inhibition of myocardial PDE III leads to positive inotropy (increasing of the force of contractions of the heart), increased chronotropy (increase in heart rate), and peripheral vasodilatation. Such cardiovascular manifestations of this inhibition are typically seen with the classical positive inotropes, milrinone and enoximone, and exploited in the short-term acute treatment of congestive heart failure. However, in the treatment of a so-called silent disease (i.e., asymptomatic) such as ET, the cardiovascular side-effects of palpitations and tachycardia associated with anagrelide limit its utility and a significant proportion of patients—reportedly between 25 and 50%—fail to tolerate the drug during long term treatment.
# [2] = Pharmacokinetics of anagrelide and its metabolite; assay type: in vivo, human; conditions: typical exposures, relative to anagrelide
# Source text: The PDE III inhibitory properties of anagrelide are quite distinct from its platelet lowering anti-megakaryocytic effects. Indeed studies have shown no correlation between potency as a PDE III inhibitor and anti-megakaryocytic effects for anagrelide and its principal pharmacologically active metabolite, 3-hydroxyanagrelide (3-OH anagrelide or 3-HA, formerly known as SPD604 or BCH24426). […] Anagrelide's active metabolite, 3-HA, is present in vivo in amounts greatly exceeding those of the parent drug with typical exposures being 2-3 fold greater. Thus by implication 3-OH anagrelide is likely to be a major contributor to the pharmacological actions of the drug.
# The metabolism of anagrelide generally proceeds extremely rapidly, resulting in a less than ideal pharmacokinetic profile of the drug. […] This, combined with the side-effects profile, can lead to poor patient compliance. Furthermore, anagrelide undergoes a large first pass effect (>50%) leading to considerable intersubject variation in achieved exposures and, therefore, potentially variable drug response. Also, exposure to the pharmacologically active metabolite varies dramatically between patients since its formation is dependent on CYP1A, an enzyme whose expression is highly dependent on exposure to inducing agents such as cigarette smoke. […]
# [3] = tested on: human megakaryocytopoiesis; conditions: cited from earlier work
# [4] = in vivo; cited from earlier work
# [5] = target: human phosphodiesterase III (PDE III); conditions: cited from earlier work
# [6] = tested on: erythroid or myelomonocytic differentiation; conditions: stimulated by erythropoietin or granulocyte-macrophage colony-stimulating factor; cited from earlier work
# [7] = tested on: platelet count; conditions: patients with thrombocythemia secondary to a myeloproliferative disorder; cited from earlier work
Structure (SMILES),potency as PDE III inhibitor relative to anagrelide [1],exposure in vivo relative to parent drug [2],potency of inhibition of megakaryocytopoiesis relative to parent drug ([3]; relative to anagrelide),typical half-life [4] [h],"IC50 ([3]; TPO-induced, dose-dependent, read-out: estimated IC50, inhibition of TPO-induced megakaryocytopoiesis) [µM]",IC50 [5] [µM],effect on erythroid or myelomonocytic differentiation [6],time to complete response (platelet count ≦600×10^9/L) [7] [weeks],first pass effect [4] [%]
O=C1NC2=Nc3ccc(Cl)c(Cl)c3CN2C1O (stereo not shown) [3-hydroxyanagrelide],over 40 fold,2-3 fold,no more potent than the parent drug,2.5,,,,,
"O=C1CN2Cc3c(ccc(Cl)c3Cl)N=C2N1 [Anagrelide, 6,7-dichloro-1,5-dihydroimidazo[2,1-b]-quinazolin-2(3H)-one]",,,,,~0.026,~0.029,does not affect,4 to 12,> 50
Cc1[nH]c(=O)c(C#N)cc1-c1ccncc1 [milrinone],,,,,,0.17 to 0.35,,,
